Reference: patent publication US20110130405A1, “SUBSTITUTED QUINAZOLINES AS BLOOD PLATELET LOWERING AGENTS” (Shire LLC, priority 2008, published 2011)
pIC50: −log10 of the molar value.

Legend:
[1] = system: human phosphodiesterase III (PDE III); assay: PDE III inhibition; format: biochemical; settings: more potent than anagrelide
Excerpt: In early volunteer trials, the most frequently reported adverse effects AEs other than headache were palpitations, postural dizziness and nausea. During patient studies, the most frequently reported drug-related AEs were headache, palpitations, oedema/fluid retention, nausea/vomiting, diarrhea, dizziness and abdominal pain. These effects are all likely to arise from the secondary, cardiovascular pharmacology associated with anagrelide resulting from its inhibitory effects on human phosphodiesterase III (PDE III). […] Inhibition of myocardial PDE III leads to positive inotropy (increasing of the force of contractions of the heart), increased chronotropy (increase in heart rate), and peripheral vasodilatation. Such cardiovascular manifestations of this inhibition are typically seen with the classical positive inotropes, milrinone and enoximone, and exploited in the short-term acute treatment of congestive heart failure. However, in the treatment of a so-called silent disease (i.e., asymptomatic) such as ET, the cardiovascular side-effects of palpitations and tachycardia associated with anagrelide limit its utility and a significant proportion of patients—reportedly between 25 and 50%—fail to tolerate the drug during long term treatment.

[2] = system: human megakaryocytopoiesis; settings: cited from earlier work
[3] = human; cited from earlier work
[4] = pharmacokinetics in humans; format: in vivo, human; settings: after anagrelide treatment
Excerpt: The metabolism of anagrelide generally proceeds extremely rapidly, resulting in a less than ideal pharmacokinetic profile of the drug. […] This, combined with the side-effects profile, can lead to poor patient compliance. Furthermore, anagrelide undergoes a large first pass effect (>50%) leading to considerable intersubject variation in achieved exposures and, therefore, potentially variable drug response. Also, exposure to the pharmacologically active metabolite varies dramatically between patients since its formation is dependent on CYP1A, an enzyme whose expression is highly dependent on exposure to inducing agents such as cigarette smoke. Overall, this may result in the need for careful dose titration in patients being treated with anagrelide.

[5] = molecular target: human phosphodiesterase III (PDE III); settings: cited from earlier work
[6] = system: erythroid or myelomonocytic differentiation; settings: stimulated by erythropoietin or granulocyte-macrophage colony-stimulating factor; cited from earlier work

O=C1NC2=Nc3ccc(Cl)c(Cl)c3CN2C1O (stereo not drawn) [3-hydroxyanagrelide]
potency as PDE III inhibitor relative to anagrelide [1]: over 40 fold | potency of inhibition of megakaryocytopoiesis relative to parent drug ([2]; compared with anagrelide): no more potent than the parent drug | typical half-life [3]: 2.5 h | in vivo exposure relative to parent drug [4]: 2-3 fold

Cc1[nH]c(=O)c(C#N)cc1-c1ccncc1 [milrinone]
pIC50 [5]: 6.46 to 6.77

O=C1CN2Cc3c(ccc(Cl)c3Cl)N=C2N1 [Anagrelide, 6,7-dichloro-1,5-dihydroimidazo[2,1-b]-quinazolin-2(3H)-one]
effect on erythroid or myelomonocytic differentiation [6]: does not affect | pIC50 ([2]; in vitro, dose-dependent, read-out: estimated IC50, inhibition of TPO-induced megakaryocytopoiesis): ~7.59 | first pass effect [3]: > 50% | pIC50 [5]: ~7.54
